Experimental data as given in ChEMBL document CHEMBL5260828, “Amphiphilic glycoconjugates as potential anti-cancer chemotherapeutics” (Eur J Med Chem, 2018).
Values after ≈ are worked out from the molar mass of the structure shown.

Experiments:
Jurkat [1] = experiment: Inhibition of cell growth in human Jurkat cells at 25 ug/ml; type: functional
[2] = biological target: RAC-alpha serine/threonine-protein kinase (Homo sapiens, UniProt P31749); experiment: Inhibition of AKT1 (unknown origin) in presence of ATP by ELISA
IGROV-1 [3] = experiment: Antiproliferative activity against human IGROV-1 cells assessed as inhibition of cell growth incubated for 72 hrs by Coulter counter assay; type: functional, cell-based; conditions: IGROV-1, 72 h
IGROV-1 [4] = experiment: Antiproliferative activity against human IGROV-1 cells assessed as inhibition of cell growth incubated for 72 hrs in serum-free medium by Coulter counter assay; type: functional, cell-based; conditions: IGROV-1, 72 h
HEp-2 = experiment: Cytotoxicity against human HEp-2 cells assessed as cell growth inhibition by measuring effective dose; type: functional; conditions: read-out: ED50 (the source's name)
MDA-MB-231 [5] = experiment: Cytotoxicity against human MDA-MB-231 cells assessed as cell growth inhibition by alamar blue assay; type: functional, cell-based
MCF7 = experiment: Cytotoxicity against human MCF7 cells assessed as cell growth inhibition by MTT assay; type: functional, cell-based
HeLa = experiment: Cytotoxicity against human HeLa cells assessed as cell growth inhibition by alamar blue assay; type: functional, cell-based
U-937 = experiment: Cytotoxicity against human U-937 cells assessed as cell growth inhibition by alamar blue assay; type: functional, cell-based
Jurkat [6] = experiment: Cytotoxicity against human Jurkat cells assessed as cell growth inhibition by alamar blue assay; type: functional, cell-based
MCF-10A = experiment: Cytotoxicity against human MCF-10A cells assessed as cell growth inhibition by alamar blue assay; type: functional, cell-based
[7] = Cytotoxicity against human HEK293F cells; type: toxicity, cell-based
MKN-45 = experiment: Cytotoxicity against human MKN-45 cells; type: functional, cell-based
ACHN [8] = experiment: Cytotoxicity against human ACHN cells; type: functional, cell-based
A549 [9] = experiment: Cytotoxicity against human A549 cells assessed as inhibition of cell growth by measuring its effective dose; type: functional; conditions: read-out: ED50 (the source's name)
SK-OV-3 = experiment: Cytotoxicity against human SK-OV-3 cells assessed as inhibition of cell growth by measuring its effective dose; type: functional; conditions: read-out: ED50 (the source's name)
SK-MEL-2 = experiment: Cytotoxicity against human SK-MEL-2 cells assessed as inhibition of cell growth by measuring its effective dose; type: functional; conditions: read-out: ED50 (the source's name)
XF498 = experiment: Cytotoxicity against human XF498 cells assessed as inhibition of cell growth by measuring its effective dose; type: functional; conditions: read-out: ED50 (the source's name)
HCT-15 = experiment: Cytotoxicity against human HCT-15 cells assessed as inhibition of cell growth by measuring its effective dose; type: functional; conditions: read-out: ED50 (the source's name)
KB [10] = experiment: Cytotoxicity against human KB cells by MTT assay; type: functional, cell-based
K562 [11] = experiment: Cytotoxicity against human K562 cells by MTT assay; type: functional, cell-based
KB [12] = experiment: Cytotoxicity against human KB cells assessed as cell growth inhibition incubated for 24 hrs by MTT assay; type: functional, cell-based
A549 [13] = experiment: Cytotoxicity against human A549 cells assessed as cell growth inhibition incubated for 24 hrs by MTT assay; type: functional, cell-based; conditions: A549, 24 h
Col2 = experiment: Cytotoxicity against human Col2 cells assessed as cell growth inhibition incubated for 24 hrs by MTT assay; type: functional, cell-based; conditions: Col2, 24 h
K562 [14] = experiment: Cytotoxicity against human K562 cells assessed as cell growth inhibition incubated for 24 hrs by MTT assay; type: functional, cell-based; conditions: K562, 24 h
MDA-MB-231 [15] = experiment: Cytotoxicity against human MDA-MB-231 cells assessed as cell growth inhibition incubated for 24 hrs by MTT assay; type: functional, cell-based; conditions: MDA-MB-231, 24 h
K562 [16] = experiment: Antiproliferative activity against human K562 cells assessed as reduction in cell viability incubated for 48 hrs by CCK-8 assay; type: functional, cell-based; conditions: K562, 48 h
P388 = experiment: Cytotoxicity against mouse P388 cells; type: functional, cell-based; conditions: Mus musculus, P388; read-out: IC50
L1210 = experiment: Cytotoxicity against mouse L1210 cells; type: functional, cell-based
T-24 = experiment: Cytotoxicity against human T24 cells assessed as cell viability; type: functional
ACHN [17] = experiment: Cytotoxicity against human ACHN cells assessed as cell viability; type: functional

Chain of RAC-alpha serine/threonine-protein kinase (P31749 whole entry): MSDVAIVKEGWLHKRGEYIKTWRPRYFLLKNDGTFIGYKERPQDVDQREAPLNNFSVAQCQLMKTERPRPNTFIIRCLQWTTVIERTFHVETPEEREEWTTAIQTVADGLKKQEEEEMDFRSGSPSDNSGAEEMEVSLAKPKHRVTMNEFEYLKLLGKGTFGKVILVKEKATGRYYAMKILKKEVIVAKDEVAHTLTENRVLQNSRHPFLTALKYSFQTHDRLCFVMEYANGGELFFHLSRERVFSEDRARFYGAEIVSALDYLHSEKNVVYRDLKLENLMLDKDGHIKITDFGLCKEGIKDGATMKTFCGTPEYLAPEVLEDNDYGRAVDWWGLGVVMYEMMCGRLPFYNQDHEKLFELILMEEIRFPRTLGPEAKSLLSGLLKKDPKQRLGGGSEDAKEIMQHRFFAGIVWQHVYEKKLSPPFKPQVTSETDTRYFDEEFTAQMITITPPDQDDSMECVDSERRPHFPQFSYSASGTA

With CCOC(=O)CCCCCCC/C=C/CCCCCC[C@H](C)O[C@@H]1O[C@H](COC(C)=O)[C@@H](O)[C@H](O)[C@H]1O[C@@H]1O[C@H](COC(C)=O)[C@@H](O)[C@H](O)[C@H]1O as the compound, how does the inhibition at 25 µg/mL (Jurkat [1]) read?
Its inhibition at 25 µg/mL is 90%.

With CCCCCCCCCC(=O)OCC(COC(=O)CCCCCCCCC)O[C@@H]1O[C@H](C(=O)O)[C@@H](O)[C@H](O)[C@H]1O as the compound, how does the IC50 [2] read?
The IC50 was 30800 nM.

What about the IC50 (IGROV-1 [3]) of the same compound?
The IC50 was 156000 nM.

What about the IC50 (IGROV-1 [4]) of the same compound?
Its IC50 is 9400 nM.

With CCCCCCCCCCCC(=O)O[C@@H]1[C@@H](O)[C@@H](OC(=O)/C=C/c2ccccc2)[C@H](O[C@@H]2[C@@H](O[C@@H]3O[C@@H](C)[C@H](O)[C@@H](O)[C@H]3O)[C@@H](OC(=O)C(C)C)[C@H](O[C@@H]3[C@@H](O)[C@H]4OC(=O)CCCCCCCCC[C@@H](CCCCC)O[C@@H]5O[C@H](C)[C@@H](O)[C@H](O)[C@H]5O[C@@H]4O[C@H]3C)O[C@H]2C)O[C@H]1C as the compound, how does the EC50 (HEp-2) read?
Its EC50 is 2 µg/mL (≈ 1.46 µM).

Which IC50 (MDA-MB-231 [5]) does the source give for C/C=C(\C)C(=O)O[C@@H]1[C@@H](O)[C@@H]2O[C@H]3[C@H](O[C@@H](CCCCC)CCCCCCCCCC(=O)OC[C@@H](O2)[C@H]1OC(=O)/C=C/c1ccccc1)O[C@H](C)[C@H](OC(C)=O)[C@@H]3O here?
The IC50 was 16.1 nM.

What about the IC50 (MCF7) of the same compound?
Its IC50 is 33 nM.

What about the IC50 (HeLa) of the same compound?
The IC50 was 14.9 nM.

And the IC50 (U-937)?
The IC50 was 11.1 nM.

What about the IC50 (Jurkat [6]) of the same compound?
Its IC50 is 9.7 nM.

What about the IC50 (MCF-10A) of the same compound?
The IC50 was 30.7 nM.

With CCCCCCCC(=O)O[C@H]1[C@H](OC[C@@H](O)[C@@H](O)[C@H](O)CO)O[C@H](COC(=O)CCCCC)[C@@H](OC(=O)CCCCC)[C@@H]1OC(=O)CCCCC as the compound, how does the IC50 [7] read?
Its IC50 is 8900 nM.

What about the IC50 (MKN-45) of the same compound?
Its IC50 is 7500 nM.

And the IC50 (ACHN [8])?
Its IC50 is 6800 nM.

What does the source list for CCCCCCCCCCCCCCCCOC[C@H](O)COC1[C@@H](O)[C@H](O)[C@@H](O)[C@@H]1O?
EC50 (A549 [9]): 4.3 µg/mL (≈ 9.58 µM); EC50 (SK-OV-3): 4.3 µg/mL (≈ 9.58 µM); EC50 (SK-MEL-2): 4.3 µg/mL (≈ 9.58 µM); EC50 (XF498): 4.3 µg/mL (≈ 9.58 µM); EC50 (HCT-15): 4.3 µg/mL (≈ 9.58 µM)

Which results are given for C/C=C(\C)[C@H](O)[C@H](C)/C=C/C=C/C/C(C)=C/Cc1nc(OC)c(OC)c(OC2O[C@@H](C)[C@H](O)[C@@H](O)[C@H]2O)c1C (stereo partly drawn)?
IC50 (KB [10]): 4.5 µg/mL (≈ 8.22 µM); IC50 (K562 [11]): 2.9 µg/mL (≈ 5.29 µM)

Which results are given for CCCCCCCCO[C@@H]1O[C@@H](C)[C@H](OC(=O)CCCCC)[C@@H](O[C@@H]2O[C@@H](C)[C@H](OC(C)=O)[C@@H](O[C@@H]3O[C@@H](C)[C@H](OC(C)=O)[C@@H](O[C@@H]4O[C@@H](C)[C@H](O)[C@@H](O)[C@H]4OC(C)=O)[C@H]3OC(C)=O)[C@H]2OC(C)=O)[C@H]1O?
IC50 (KB [12]): 700 nM; IC50 (A549 [13]): 700 nM; IC50 (Col2): 700 nM; IC50 (K562 [14]): 700 nM; IC50 (MDA-MB-231 [15]): 700 nM

With CCCCCCCCCCN1C[C@H](NC(C)=O)[C@@H](O)[C@H](O)C1=O as the compound, how does the IC50 (K562 [16]) read?
Its IC50 is 19800 nM.

For CO[C@@H]1[C@H](O[C@@H]2CO[C@@H](O[C@@H]3[C@@H](O)[C@H](O)CO[C@H]3N3C(=O)/C(=C(O)/C=C/C=C/C=C/C=C/C=C(Cl)/C=C(\C)Cl)C(=O)[C@@H]3CC(N)=O)[C@@H](O)[C@@H]2O)O[C@H](C)[C@H]1O [AURANTOSIDE A], which IC50 (P388) is on record?
Its IC50 is 1.8 µg/mL (≈ 2.2 µM).

What about the IC50 (L1210) of the same compound?
Its IC50 is 3.4 µg/mL (≈ 4.16 µM).

Which IC50 (P388) does the source give for C\C(Cl)=C/C(Cl)=C/C=C/C=C/C=C/C=C/C(O)=C1\C(=O)[C@H](CC(N)=O)N([C@@H]2OC[C@@H](O)[C@H](O)[C@H]2O[C@@H]2OC[C@@H](O[C@@H]3O[C@H](C)[C@@H](O)[C@@H]3O)[C@@H](O)[C@@H]2O)C1=O [AURANTOSIDE B] here?
The IC50 was 3.2 µg/mL (≈ 3.98 µM).

What about the IC50 (L1210) of the same compound?
Its IC50 is 3.3 µg/mL (≈ 4.11 µM).

With COc1cccc2c1C(=O)c1c(O)c3c(c(O)c1C2=O)C[C@@](O)(C(=O)CO)C[C@@H]3O[C@H]1C[C@H](N)[C@H](O)[C@H](C)O1 [DOXORUBICIN] as the compound, how does the Activity (T-24) read?
Its Activity is 79%.

Which Activity (ACHN [17]) does the source give for CC(=O)O[C@H]1C(=O)[C@@]2(C)[C@H]([C@H](OC(=O)c3ccccc3)[C@]3(O)C[C@H](OC(=O)[C@H](O)[C@@H](NC(=O)c4ccccc4)c4ccccc4)C(C)=C1C3(C)C)[C@]1(OC(C)=O)CO[C@@H]1C[C@@H]2O [PACLITAXEL] here?
The Activity was 65.8%.
